Literature values, collected in patent US9532875B2, “Combined space maintenance and bone regeneration system for the reconstruction of large osseous defects” (WILLIAM MARSH RICE UNIVERSITY, priority 2010, dated 2017).

System: susceptible species
Settings: reported

Substance: Colistin sulfate salt
- minimum inhibitory concentrations (MICs): 0.5 to 5 µg/mL
